Measured values: PubChem BioAssay AID1918949 (Molecular Pharmacology Branch, DTP, NCI, 2023)

System: K24384-001-R-PDC complex spheroid viability
Assay: Anticancer human tumor K24384-001-R-PDC patient-derived pancreatic adenocarcinoma cell line growth inhibition
Conditions: for IC50: curve of first compound; for viability, T/C: stronger effect = lower value; active means viability on the fitted dose curve at most 10% of control; inactive means the rest
Procedure, shortened: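 Drug combinations with the LSD1 inhibitor iadademstat tested on tumor cells co-cultured as spheroids with endothelial cells and mesenchymal stem cells. Concentrations descended in half-log increments from clinical Cmax or 10 microM.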

[1] = second compound 0.1 µM, first compound 0.0316 µM
[2] = second compound 0.1 µM, first compound 0.1 µM
[3] = second compound 0.1 µM, first compound 0.316 µM
[4] = second compound 0.1 µM, first compound 1 µM
[5] = second compound 0.1 µM, first compound 3.16 µM
[6] = second compound 0.1 µM, first compound 10 µM
[7] = second compound 0.316 µM, first compound 0.0316 µM
[8] = second compound 0.316 µM, first compound 0.1 µM
[9] = second compound 0.316 µM, first compound 0.316 µM
[10] = second compound 0.316 µM, first compound 1 µM
[11] = second compound 0.316 µM, first compound 3.16 µM
[12] = second compound 0.316 µM, first compound 10 µM
[13] = second compound 1 µM, first compound 0.0316 µM
[14] = second compound 1 µM, first compound 0.1 µM
[15] = second compound 1 µM, first compound 0.316 µM
[16] = second compound 1 µM, first compound 1 µM
[17] = second compound 1 µM, first compound 3.16 µM
[18] = second compound 1 µM, first compound 10 µM
[19] = second compound 3.16 µM, first compound 0.0316 µM
[20] = second compound 3.16 µM, first compound 0.1 µM
[21] = second compound 3.16 µM, first compound 0.316 µM
[22] = second compound 3.16 µM, first compound 1 µM
[23] = second compound 3.16 µM, first compound 3.16 µM
[24] = second compound 3.16 µM, first compound 10 µM
[25] = second compound 10 µM, first compound 0.0316 µM
[26] = second compound 10 µM, first compound 0.1 µM
[27] = second compound 10 µM, first compound 0.316 µM
[28] = second compound 10 µM, first compound 1 µM
[29] = second compound 10 µM, first compound 3.16 µM
[30] = second compound 10 µM, first compound 10 µM
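Further: spheroids exposed to agents for seven days before luminescence viability reading.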
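Wherever viability, T/C is given: 100% = DMSO vehicle control viability.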

CC(C)c1c(-c2ccccc2)nc2c(C#N)c[nH]n2c1=O + NC1CCC(NC2CC2c2ccccc2)CC1
inactive: viability, T/C [1] 78.2% | viability, T/C [2] 80.2% | viability, T/C [3] 77.7% | viability, T/C [4] 77.3% | viability, T/C [5] 81.4% | viability, T/C [6] 81% | viability, T/C [7] 78.3% | viability, T/C [8] 70.4% | viability, T/C [9] 85.8% | viability, T/C [10] 72.2% | viability, T/C [11] 77.1% | viability, T/C [12] 87.5% | viability, T/C [13] 72.5% | viability, T/C [14] 67.4% | viability, T/C [15] 96.3% | viability, T/C [16] 75.3% | viability, T/C [17] 75% | viability, T/C [18] 97.4% | viability, T/C [19] 73% | viability, T/C [20] 81.5% | viability, T/C [21] 82.5% | viability, T/C [22] 71% | viability, T/C [23] 75% | viability, T/C [24] 77.9% | viability, T/C [25] 77.2% | viability, T/C [26] 74.7% | viability, T/C [27] 80.2% | viability, T/C [28] 76.6% | viability, T/C [29] 80.1% | viability, T/C [30] 83.6%
> 10 µM: IC50 (second compound 0.1 µM) | IC50 (second compound 0.316 µM) | IC50 (second compound 1 µM) | IC50 (second compound 3.16 µM) | IC50 (second compound 10 µM)

CC1COCCN1c1cc(-c2ccnn2C)c2ccnc(-c3ccn[nH]3)c2n1 (stereo not given) + NC1CCC(NC2CC2c2ccccc2)CC1
0.00507 µM: IC50 (second compound 10 µM)
0.0566 µM: IC50 (second compound 0.1 µM)
0.00922 µM: IC50 (second compound 3.16 µM)
< 0.00316 µM: IC50 (second compound 0.316 µM)
inactive: viability, T/C (second compound 0.1 µM, first compound 0.00316 µM) 54.7% | viability, T/C (second compound 0.1 µM, first compound 0.01 µM) 56.7% | viability, T/C [1] 49% | viability, T/C [2] 45.1% | viability, T/C [3] 52.2% | viability, T/C [4] 42.4% | viability, T/C (second compound 0.316 µM, first compound 0.00316 µM) 52.6% | viability, T/C (second compound 0.316 µM, first compound 0.01 µM) 48.3% | viability, T/C [7] 42.5% | viability, T/C [8] 43.3% | viability, T/C [9] 51.6% | viability, T/C [10] 44.4% | viability, T/C (second compound 1 µM, first compound 0.00316 µM) 51% | viability, T/C (second compound 1 µM, first compound 0.01 µM) 56.5% | viability, T/C [13] 41.6% | viability, T/C [14] 40.2% | viability, T/C [15] 47.5% | viability, T/C [16] 44.2% | viability, T/C (second compound 3.16 µM, first compound 0.00316 µM) 55.4% | viability, T/C (second compound 3.16 µM, first compound 0.01 µM) 51.7% | viability, T/C [19] 41.8% | viability, T/C [20] 42% | viability, T/C [21] 49.7% | viability, T/C [22] 36.2% | viability, T/C (second compound 10 µM, first compound 0.00316 µM) 48.4% | viability, T/C (second compound 10 µM, first compound 0.01 µM) 54.9% | viability, T/C [25] 39.2% | viability, T/C [26] 34.7% | viability, T/C [27] 33.2% | viability, T/C [28] 31.6%
0.00771 µM: IC50 (second compound 1 µM)

CC1COCCN1c1cc(C2(S(C)(=N)=O)CC2)nc(-c2ccnc3[nH]ccc23)n1 (stereo not given) + NC1CCC(NC2CC2c2ccccc2)CC1
1.71 µM: IC50 (second compound 10 µM)
2.45 µM: IC50 (second compound 0.1 µM)
2.32 µM: IC50 (second compound 1 µM)
inactive: viability, T/C [1] 82.9% | viability, T/C [2] 79.5% | viability, T/C [3] 91.1% | viability, T/C [4] 71.5% | viability, T/C [5] 43.2% | viability, T/C [6] 44.5% | viability, T/C [7] 95.2% | viability, T/C [8] 90.1% | viability, T/C [9] 107% | viability, T/C [10] 57.5% | viability, T/C [11] 45.5% | viability, T/C [12] 34.3% | viability, T/C [13] 84.4% | viability, T/C [14] 88% | viability, T/C [15] 84.3% | viability, T/C [16] 67% | viability, T/C [17] 44% | viability, T/C [18] 38.9% | viability, T/C [19] 80.6% | viability, T/C [20] 97.6% | viability, T/C [21] 82.9% | viability, T/C [22] 60.4% | viability, T/C [23] 41.8% | viability, T/C [24] 34.4% | viability, T/C [25] 79.6% | viability, T/C [26] 74% | viability, T/C [27] 76.8% | viability, T/C [28] 60.4% | viability, T/C [29] 36.9% | viability, T/C [30] 39%
1.63 µM: IC50 (second compound 0.316 µM)
1.83 µM: IC50 (second compound 3.16 µM)
